From PMC12677607, “Identification of a Pair of Linear or Cyclic Naturally Inspired Bifunctional Lipopeptide Antibiotics That Overcome Antimicrobial Resistance” (Advanced Science, 2025)
≈ marks a conversion by molar mass, not a printed value. Bridge positions count the residues as written; N and C are the ends. Square brackets hold non-standard residues; d marks the D form. Peptide text beside a SMILES is read from it. * marks the point of attachment. Myristoyl = CCCCCCCCCCCCCC(=O)*; Orn = NCCC[C@H](N)C(=O)O; Dab = NCC[C@H](N)C(=O)O; Dap = NC[C@H](N)C(=O)O

Columns and labels:
[1] = system: Acinetobacter baumannii 1104008; assay: microbe, parasite or virus in culture; format: cell-based; details: Table S11; LB broth, 37 °C, 16 h, n = 2
Outline: (§1)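 MIC = lowest peptide concentration with no visible growth; LB broth microdilution, n = 2. Inoculum: overnight culture diluted 5000× (S. aureus 10000×). Peptides serially diluted 2-fold, 64–0.125 µg mL^−1 in the broth added to cells.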

[2] = system: Klebsiella pneumoniae NCTC 5056; assay: microbe, parasite or virus in culture; format: cell-based; details: NCTC 5056, 16 h
Outline: as §1

[3] = system: Klebsiella pneumoniae CRKP HS11286; assay: microbe, parasite or virus in culture; format: cell-based; details: for MIC Klebsiella pneumoniae CRKP HS11286: CRKP HS11286, 16 h
Outline: as §1

[4] = system: Enterococcus faecalis ATCC 29212; assay: microbe, parasite or virus in culture; format: cell-based; details: ATCC 29212, 16 h
Outline: as §1

[5] = system: Staphylococcus aureus USA300; assay: microbe, parasite or virus in culture; format: cell-based; details: for MIC Staphylococcus aureus USA300: Table S11, LB broth, 37 °C, 16 h, n = 2
Outline: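 Growth inhibition read visually; MIC taken as lowest inhibitory concentration. LB medium; inocula from overnight cultures diluted 5000-fold, S. aureus 10000-fold. Peptide range 64 to 0.125 µg mL^−1 (2-fold, pre-mix), two independent determinations.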

[6] = system: Staphylococcus aureus Newman; assay: microbe, parasite or virus in culture; format: cell-based; details: Newman, 16 h
Outline: as §1

[7] = system: Staphylococcus aureus ATCC 6538; assay: microbe, parasite or virus in culture; format: cell-based; details: ATCC 6538, 16 h
Outline: as §1

[8] = system: Enterococcus faecium 35682; assay: microbe, parasite or virus in culture; format: cell-based; details: Table S11; LB broth, 37 °C, 16 h, n = 2
Outline: as §1

[9] = system: Acinetobacter baumannii ATCC 19606; assay: microbe, parasite or virus in culture; format: cell-based; details: ATCC 19606, 16 h
Outline: as §1

[10] = system: Pseudomonas aeruginosa PAO1; assay: microbe, parasite or virus in culture; format: cell-based
Outline: as §1

[11] = system: Salmonella enterica ATCC 14028; assay: microbe, parasite or virus in culture; format: cell-based; details: ATCC 14028, 16 h
Outline: as §1

[12] = system: Pseudomonas aeruginosa ATCC 9027; assay: microbe, parasite or virus in culture; format: cell-based; details: ATCC 9027, 16 h
Outline: as §1

[13] = system: Vibrio alginolyticus XSBZ14; assay: microbe, parasite or virus in culture; format: cell-based; details: 16 h
Outline: as §1

[14] = system: Streptococcus pyogenes ATCC 19615; assay: microbe, parasite or virus in culture; format: cell-based; details: Table S11; LB broth, 37 °C, 16 h, n = 2
Outline: as §1

[15] = system: Staphylococcus aureus ATCC 25923; assay: microbe, parasite or virus in culture; format: cell-based; details: ATCC 25923, 16 h
Outline: as §1

[16] = system: Klebsiella pneumoniae ATCC 13883; assay: microbe, parasite or virus in culture; format: cell-based; details: ATCC 13883, 16 h
Outline: as §1

[17] = system: Acinetobacter baumannii ATCC 17978; assay: microbe, parasite or virus in culture; format: cell-based; details: ATCC 17978, 16 h
Outline: as §1

Enterococcus faecalis 26 = assay: microbe, parasite or virus in culture; format: cell-based; details: 26, 16 h
Outline: as §1

[18] = system: Klebsiella pneumoniae CRKP 5452; assay: microbe, parasite or virus in culture; format: cell-based; details: for MIC Klebsiella pneumoniae CRKP 5452: Table S11, LB broth, 37 °C, 16 h, n = 2
Outline: as §1

[19] = system: Salmonella typhimurium LXX; assay: microbe, parasite or virus in culture; format: cell-based; details: murium LXX, 16 h
Outline: as §1

Enterococcus faecalis 28 = assay: microbe, parasite or virus in culture; format: cell-based; details: 28, 16 h
Outline: as §1

[20] = system: Streptococcus mutans ATCC 25175; assay: microbe, parasite or virus in culture; format: cell-based; details: ATCC 25175, 16 h
Outline: as §1

[21] = Isothermal titration calorimetry; format: binding; details: Table S12, ITC, 20 mM HEPES pH 7.5, 20 injections
Experimental: Calorimetric experiments were performed to evaluate the interaction between CL, PE, PG, or LPS and aquicidine L or aquicidine C4. To determine the affinity between aquicidine L or aquicidine C4 and CL, PE, or PG, both 2 mM CL, PE, or PG and 0.2 mM aquicidine L or aquicidine C4 were dissolved in 20 mM HEPES buffer (pH 7.5). To determine the interaction between LPS and aquicidine L or aquicidine C4, 2 mM LPS and 0.2 mM aquicidine L or aquicidine C4 were dissolved in H2O. Sequential injections of CL, PE, PG, or LPS into the calorimetric cell filled with aquicidine L or aquicidine C4 were repeated 20 times with equilibration intervals of 200 s. Data were collected by using a MicroCal PEAQ‐ITC instrument and calculated for the equilibrium dissociation constant (KD), change of enthalpy (ΔH), and change of entropy […].

Escherichia coli DH5α = assay: MIC assay (broth micro-dilution); format: cell-based; details: Table S11; LB broth, 37 °C, 16 h, n = 2
Outline: as §1

B. subtilis ATCC 23857 = assay: MIC assay (broth micro-dilution); format: cell-based; details: Table S11; LB broth, 37 °C, 16 h, n = 2
Outline: as §1

E. coli DH5α = assay: Bactericidal effects / cell lysis in E. coli; format: cell-based; details: after 12 h at 16× MIC, Figure S123a
[22] = system: Candida albicans ATCC 10231; assay: MIC assay (YPD broth); format: cell-based; details: Table S11; YPD broth, 30 °C, 16 h, n = 2
Experimental: All MIC assays were performed two independent times (n = 2) in 96‐well plates using a broth micro‐dilution method. The lowest concentration of that inhibited visible microbial growth was recorded as the MIC value.
For fungal strains, overnight cultures were diluted 2000‐fold in YPD broth. 100 µL of diluted cells was mixed with 100 µL of YPD broth containing each peptide ranging from […] 64 to 0.125 µg mL^−1 at 2‐fold serial dilutions.

Compound	MIC Acinetobacter baumannii 1104008 [1] [µg/mL]	MIC Klebsiella pneumoniae NCTC 5056 [2] [µg/mL]	MIC Klebsiella pneumoniae CRKP HS11286 [3] [µg/mL]	MIC Enterococcus faecalis ATCC 29212 [4] [µg/mL]	MIC Staphylococcus aureus USA300 [5] [µg/mL]	MIC Staphylococcus aureus Newman [6] [µg/mL]	MIC Staphylococcus aureus ATCC 6538 [7] [µg/mL]	MIC Enterococcus faecium 35682 [8] [µg/mL]	MIC Acinetobacter baumannii ATCC 19606 [9] [µg/mL]	MIC Salmonella enterica ATCC 14028 [11] [µg/mL]	MIC Pseudomonas aeruginosa ATCC 9027 [12] [µg/mL]	MIC Vibrio alginolyticus XSBZ14 [13] [µg/mL]	MIC Streptococcus pyogenes ATCC 19615 [14] [µg/mL]	MIC Staphylococcus aureus ATCC 25923 [15] [µg/mL]	MIC Klebsiella pneumoniae ATCC 13883 [16] [µg/mL]	MIC Acinetobacter baumannii ATCC 17978 [17] [µg/mL]	MIC Enterococcus faecalis 26 (Enterococcus faecalis 26) [µg/mL]	MIC Klebsiella pneumoniae CRKP 5452 [18] [µg/mL]	MIC Salmonella typhimurium LXX [19] [µg/mL]	MIC Enterococcus faecalis 28 (Enterococcus faecalis 28) [µg/mL]	also measured
CCCCCCCCCCCCCC(=O)N[C@@H](CN)C(=O)N[C@H](C(=O)N[C@@H](CC(C)C)C(=O)N[C@H]1COC(=O)[C@H](Cc2ccccc2)NC(=O)[C@H](CC(N)=O)NC(=O)[C@H](CCCN)NC(=O)[C@H]([C@@H](C)CC)NC(=O)[C@H](Cc2ccccc2)NC(=O)[C@H](CN)NC(=O)[C@H](CCN)NC1=O)[C@@H](C)O [synAQU5-C4] (Myristoyl-[Dap]TLS[Dab][Dap]FI[Orn]NF; ester 4-C)	16 (≈ 11.3 µM)	> 64	32 (≈ 22.5 µM)	4 (≈ 2.82 µM)	4 (≈ 2.82 µM)	4 (≈ 2.82 µM)	4 (≈ 2.82 µM)	4 (≈ 2.82 µM)	32 (≈ 22.5 µM)	32 (≈ 22.5 µM)	16 (≈ 11.3 µM)	32 (≈ 22.5 µM)	2 (≈ 1.41 µM)	4 (≈ 2.82 µM)	> 64	32 (≈ 22.5 µM)	2 (≈ 1.41 µM)	32 (≈ 22.5 µM)	32 (≈ 22.5 µM)	4 (≈ 2.82 µM)	antibacterial activity (MIC) S. aureus USA300 ([5]; Figure S127b, wild type): 4 µg/mL; MIC Pseudomonas aeruginosa PAO1 ([10]; PAO1, 16 h): 32 µg/mL (≈ 22.5 µM); MIC Streptococcus mutans ATCC 25175 [20]: 4 µg/mL (≈ 2.82 µM); Kd ([21]; 2 mM CL into 0.2 mM peptide): 0.06 µM; Kd ([21]; 2 mM PE into 0.2 mM peptide): 49.3 µM; Kd ([21]; 2 mM PG into 0.2 mM peptide): 0.08 µM; MIC Escherichia coli DH5α (Escherichia coli DH5α): 8 µg/mL (≈ 5.63 µM); MIC Bacllussubtilis ATCC 23857 (B. subtilis ATCC 23857): 2 µg/mL (≈ 1.41 µM); cell lysis in E. coli (E. coli DH5α): slightly led to cell lysis; MIC Candida albicans ATCC 10231 [22]: > 64 µg/mL
CCCCCCCCCCCCCC(=O)N[C@@H](CN)C(=O)N[C@H](C(=O)N[C@@H](CC(C)C)C(=O)N[C@@H](CO)C(=O)N[C@@H](CCN)C(=O)N[C@@H](CN)C(=O)N[C@@H](Cc1ccccc1)C(=O)N[C@H](C(=O)N[C@@H](CCCN)C(=O)N[C@@H](CC(N)=O)C(=O)N[C@@H](Cc1ccccc1)C(=O)O)[C@@H](C)CC)[C@@H](C)O [synAQU5-L] (Myristoyl-[Dap]TLS[Dab][Dap]FI[Orn]NF-OH)	4 (≈ 2.78 µM)	8 (≈ 5.56 µM)	4 (≈ 2.78 µM)	32 (≈ 22.3 µM)	16 (≈ 11.1 µM)	32 (≈ 22.3 µM)	16 (≈ 11.1 µM)	16 (≈ 11.1 µM)	8 (≈ 5.56 µM)	4 (≈ 2.78 µM)	4 (≈ 2.78 µM)	8 (≈ 5.56 µM)	8 (≈ 5.56 µM)	32 (≈ 22.3 µM)	8 (≈ 5.56 µM)	4 (≈ 2.78 µM)	8 (≈ 5.56 µM)	4 (≈ 2.78 µM)	8 (≈ 5.56 µM)	16 (≈ 11.1 µM)	antibacterial activity (MIC) K. pneumoniae CRKP HS11286 ([3]; Figure S127a): 4 µg/mL; MIC Pseudomonas aeruginosa PAO1 ([10]; Table S11, LB broth, 37 °C, 16 h, n = 2): 4 µg/mL (≈ 2.78 µM); antibacterial activity (MIC) K. pneumoniae CRKP 5452 ([18]; Figure S127a, wild type): 4 µg/mL; MIC Streptococcus mutans ATCC 25175 [20]: 16 µg/mL (≈ 11.1 µM); Kd ([21]; 2 mM CL into 0.2 mM peptide): 0.28 µM; Kd ([21]; 2 mM PE into 0.2 mM peptide): 7.88 µM; Kd ([21]; 2 mM PG into 0.2 mM peptide): 0.32 µM; MIC Escherichia coli DH5α (Escherichia coli DH5α): 2 µg/mL (≈ 1.39 µM); MIC Bacllussubtilis ATCC 23857 (B. subtilis ATCC 23857): 8 µg/mL (≈ 5.56 µM); cell lysis in E. coli (E. coli DH5α): significantly led to cell lysis; MIC Candida albicans ATCC 10231 [22]: > 64 µg/mL
